From US20240285634A1, “COMPOUND AND METHOD FOR TREATING CHEMOTHERAPY-ASSOCIATED GASTROINTESTINAL SIDE EFFECTS” (ONQUALITY PHARMACEUTICALS CHINA LTD., priority 2021, published 2024)

Columns and labels:
[1] = system: Chemotherapeutic agent-caused constipation models of Balb/c mice; test: Relieving effect on constipation caused by a chemotherapeutic agent (Examples 202-364); format: in vivo
Text: Construction of mouse animal models: Chemotherapeutic agent-caused constipation models of Balb/c mice were constructed according to the administration mode and frequency of the chemotherapeutic agent as shown in Table 4. […] Thus, chemotherapeutic agent-caused constipation models of mice are very good models to mimic constipation caused by the chemotherapeutic agent.
Balb/c mice were fed for 1 week, and then divided into groups. The experiment was divided into a control group, a chemotherapeutic agent group, and a group of the compound as shown in Formula I, each of which comprised 10 mice, to perform the administration experiment, for which the administration dosage, mode, time and frequency were shown in Table 4. The control group: being injected or intragastrically administered with the same solvent as that used in the group of the compound as shown in Formula I (the administration mode and time were shown in Table 4), and then being injected or intragastrically administered with the same solvent as that used in the chemotherapeutic agent group (the administration mode was shown in Table 4); the chemotherapeutic agent group: being injected or intragastrically administered with the same solvent as that used in the group of the compound as shown in Formula I (the administration mode and time was shown in Table 4), and then being injected or intragastrically administered with the chemotherapeutic agent (the type, administration mode and dosage were shown in Table 4); the group of the compound as shown in Formula I: being injected or intragastrically administered with the compound as shown in Formula I (the administration mode and time was shown in Table 4), and then being administered with the chemotherapeutic agent (the administration mode and dosage were shown in Table 4).
(§1) The feces reduction rate was calculated with reference to the method of Ji Eun Kim (Lab Anim Res. 2016 December; 32(4): 231-240.). Feces reduction rate (%)=(the control group−the chemotherapeutic agent group or the group of the compound as shown in Formula I)/the control group*100%
(§2) It is regarded as effective remission when the feces reduction rate of mice in the group of the compound as shown in Formula I is reduced compared with that in the chemotherapeutic agent group.
(§3) The feces amount of mice within 3 hours was observed and recorded every day. At the end of the experiment, the number of mice in the group of the compound as shown in Formula I whose feces reduction rate was lower than that of mice in the chemotherapeutic agent group was recorded. Table 4 lists various animal experiment combinations of chemotherapeutic agents and the compound as shown in Formula I, as well as the corresponding experimental results.

[2] = system: Balb/c mice, constipation caused by continuous administration of a chemotherapeutic agent; test: Relieving effect on constipation caused by the continuous administration of a chemotherapeutic agent (Examples 385-405); format: in vivo
Text: Balb/c mice were fed for 1 week, and then divided into groups. The experiment was divided into a control group, a chemotherapeutic agent group, and a group of the compound as shown in Formula I, each of which comprised 10 mice, to perform the administration experiment, for which the administration dosage, mode, time and frequency were shown in Table 6. The control group: being injected or intragastrically administered with the same solvent as that used in the group of the compound as shown in Formula I (the administration mode and time were shown in Table 6), and then being injected or intragastrically administered with the same solvent as that used in the group of the compound as shown in Formula I (the administration mode was shown in Table 6); the chemotherapeutic agent group: being injected or intragastrically administered with the same solvent as that used in the group of the compound as shown in Formula I (the administration mode and time were shown in Table 6), and then being injected or intragastrically administered with the chemotherapeutic agent (the type, administration mode, time and dosage were shown in Table 6); the group of the compound as shown in Formula I: being injected or intragastrically administered with the compound as shown in Formula I (the administration mode and time were shown in Table 6), and then being administered with the chemotherapeutic agent (the type, administration mode, time and dosage were shown in Table 6).
as §1, §2
as §3, with “6” for “4”

## CN1CCN(c2ccc(Nc3ncc4cc5n(c4n3)C3(CCCCC3)CNC5=O)nc2)CC1 [Compound I, Trilaciclib]
[1]; Example 336, Fluorouracil 100 (F), oxaliplatin 5 (O), irinotecan 100 (I) and tetrahydrofolic acid 100 (L) mg/kg intravenous injection single, compound intravenous injection 100 mg/kg single, 12 h before chemotherapeutic agent, cycle 8 days
  Relative remission rate (%): 60%
[1]; Example 337, Fluorouracil 100 (F), oxaliplatin 5 (O), irinotecan 100 (I) and tetrahydrofolic acid 100 (L) mg/kg intravenous injection single, compound intravenous injection 100 mg/kg single, 14 h before chemotherapeutic agent, cycle 8 days
  Relative remission rate (%): 40%
[1]; Example 338, Fluorouracil 100 (F), oxaliplatin 5 (O), irinotecan 100 (I) and tetrahydrofolic acid 100 (L) mg/kg intravenous injection single, compound intravenous injection 100 mg/kg single, 16 h before chemotherapeutic agent, cycle 8 days
  Relative remission rate (%): 40%
[1]; Example 339, Fluorouracil 100 (F), oxaliplatin 5 (O), irinotecan 100 (I) and tetrahydrofolic acid 100 (L) mg/kg intravenous injection single, compound intravenous injection 100 mg/kg single, 18 h before chemotherapeutic agent, cycle 8 days
  Relative remission rate (%): 40%
[1]; Example 340, Fluorouracil 100 (F), oxaliplatin 5 (O), irinotecan 100 (I) and tetrahydrofolic acid 100 (L) mg/kg intravenous injection single, compound intravenous injection 100 mg/kg single, 20 h before chemotherapeutic agent, cycle 8 days
  Relative remission rate (%): 30%
[1]; Example 341, Fluorouracil 100 (F), oxaliplatin 5 (O), irinotecan 100 (I) and tetrahydrofolic acid 100 (L) mg/kg intravenous injection single, compound intravenous injection 100 mg/kg single, 24 h before chemotherapeutic agent, cycle 8 days
  Relative remission rate (%): 30%
[1]; Example 342, Fluorouracil 100 (F), oxaliplatin 5 (O), irinotecan 100 (I) and tetrahydrofolic acid 100 (L) mg/kg intravenous injection single, compound intravenous injection 100 mg/kg single, 48 h before chemotherapeutic agent, cycle 8 days
  Relative remission rate (%): 0%
[1]; Example 345, Fluorouracil 100 (F), oxaliplatin 5 (O), irinotecan 100 (I) and tetrahydrofolic acid 100 (L) mg/kg intraperitoneal injection single, compound oral administration 100 mg/kg single, 6 h before chemotherapeutic agent, cycle 7 days
  Relative remission rate (%): 60%
[1]; Example 346, Fluorouracil 100 (F), oxaliplatin 5 (O), irinotecan 100 (I) and tetrahydrofolic acid 100 (L) mg/kg intraperitoneal injection single, compound oral administration 100 mg/kg single, 24 h before chemotherapeutic agent, cycle 7 days
  Relative remission rate (%): 40%
[1]; Example 355, Fluorouracil 100 (F), oxaliplatin 5 (O), irinotecan 200 (I) and tetrahydrofolic acid 100 (L) mg/kg oral administration single, compound subcutaneous injection 100 mg/kg single, 0.5 h before chemotherapeutic agent, cycle 7 days
  Relative remission rate (%): 50%
[1]; Example 356, Fluorouracil 100 (F), oxaliplatin 5 (O), irinotecan 200 (I) and tetrahydrofolic acid 100 (L) mg/kg oral administration single, compound subcutaneous injection 100 mg/kg single, 4 h before chemotherapeutic agent, cycle 7 days
  Relative remission rate (%): 50%
[1]; Example 360, Gemcitabine (GEM) intravenous injection 120 mg/kg single, compound oral administration 100 mg/kg single, 24 h before chemotherapeutic agent, cycle 8 days
  Relative remission rate (%): 30%
[1]; administered before the chemotherapeutic agent, Table 4 and FIG. 4
  feces reduction rates compared with the chemotherapeutic agent group: reduced to different degrees
[2]; Example 385, Fluorouracil (5-Fu) 100 mg/kg intraperitoneal injection once a day for 3 days, compound 100 mg/kg intravenous injection once a day for 3 days, 0.5 h before the chemotherapeutic agent, experimental cycle 7 days
  Relative remission rate (%): 70%
[2]; Example 386, Fluorouracil (5-Fu) 100 mg/kg intraperitoneal injection once a day for 3 days, compound 100 mg/kg intravenous injection once a day for 3 days, 4 h before the chemotherapeutic agent, experimental cycle 7 days
  Relative remission rate (%): 50%
[2]; Example 387, Fluorouracil (5-Fu) 100 mg/kg intraperitoneal injection once a day for 3 days, compound 100 mg/kg intravenous injection once a day for 3 days, 6 h before the chemotherapeutic agent, experimental cycle 7 days
  Relative remission rate (%): 40%
[2]; Example 388, Fluorouracil (5-Fu) 100 mg/kg intraperitoneal injection once a day for 3 days, compound 100 mg/kg intravenous injection once a day for 3 days, 8 h before the chemotherapeutic agent, experimental cycle 7 days
  Relative remission rate (%): 30%
[2]; Example 389, Fluorouracil (5-Fu) 100 mg/kg intraperitoneal injection once a day for 5 days, compound 100 mg/kg intraperitoneal injection once a day for 5 days, 0.5 h before the chemotherapeutic agent, experimental cycle 9 days
  Relative remission rate (%): 60%
[2]; Example 390, Fluorouracil (5-Fu) 100 mg/kg intraperitoneal injection once a day for 5 days, compound 100 mg/kg intraperitoneal injection once a day for 5 days, 12 h before the chemotherapeutic agent, experimental cycle 9 days
  Relative remission rate (%): 30%
[2]; Example 391, Fluorouracil (5-Fu) 100 mg/kg intraperitoneal injection once a day for 5 days, compound 100 mg/kg intraperitoneal injection once a day for 5 days, 20 h before the chemotherapeutic agent, experimental cycle 9 days
  Relative remission rate (%): 10%
[2]; Example 392, Fluorouracil (5-Fu) 100 mg/kg intraperitoneal injection once a day for 5 days, compound 100 mg/kg intraperitoneal injection once a day for 5 days, 24 h before the chemotherapeutic agent, experimental cycle 9 days
  Relative remission rate (%): 10%
[2]; Example 396, Fluorouracil (5-Fu) 100 mg/kg intravenous injection once a day for 3 days, compound 100 mg/kg oral administration once a day for 3 days, 4 h before the chemotherapeutic agent, experimental cycle 7 days
  Relative remission rate (%): 40%
[2]; Example 402, Fluorouracil (5-Fu) 100 mg/kg intraperitoneal injection once a day for 7 days, compound 125 mg/kg intraperitoneal injection once a day for 7 days, 2 h before the chemotherapeutic agent, experimental cycle 10 days
  Relative remission rate (%): 10%
[2]; Example 403, Fluorouracil (5-Fu) 100 mg/kg intraperitoneal injection once a day for 7 days, compound 125 mg/kg intraperitoneal injection once a day for 7 days, 4 h before the chemotherapeutic agent, experimental cycle 10 days
  Relative remission rate (%): 10%
[2]; Example 404, Fluorouracil (5-Fu) 100 mg/kg intraperitoneal injection once a day for 7 days, compound 125 mg/kg intraperitoneal injection once a day for 7 days, 6 h before the chemotherapeutic agent, experimental cycle 10 days
  Relative remission rate (%): 10%
[2]; Example 405, Fluorouracil (5-Fu) 100 mg/kg intraperitoneal injection once a day for 7 days, compound 125 mg/kg intraperitoneal injection once a day for 7 days, 8 h before the chemotherapeutic agent, experimental cycle 10 days
  Relative remission rate (%): 0%
[2]; continuous administration of fluorouracil for less than 7 days
  relieving effects on constipation: significant relieving effects
[2]; continuous administration of the chemotherapeutic agent for 7 days or less
  relieving effects on constipation: have relieving effects
